We go through 13 compounds from ChEMBL document CHEMBL6078730, “Exploring the antiproliferative and proapoptotic activities of new pyridopyrimidine derivatives and their analogs” (Bioorg Med Chem, 2025).

In brackets after ≈: the same amount, converted by molar mass. Activity calls are given as the source filed them. The calls are words filed in the database; no cut-off is given here.

Data set [1] has as its system MDA-MB-435. Put plainly: Antiproliferative activity against human MDA-MB-435 cells assessed as reduction in cell growth inhibition at 10 uM incubated for 24 hrs by MTT assay relative to control. It counts as functional. The settings on record: read-out: GI. Background: Tetrazolium dyes change colour on reduction, which living cells bring about.
The test system of data set [2] is T47D. Nature of the data set: Antiproliferative activity against human T47D cells assessed as reduction in cell growth inhibition at 10 uM incubated for 24 hrs by MTT assay relative to control. In kind it is functional. The note with it: read-out: GI.
Data set [3] has as its system T47D. Nature of the data set: Antiproliferative activity against human T47D cells assessed as inhibition of cell proliferation incubated for 24 hrs by MTT assay. It counts as functional, cell-based.
The subject of data set [4] is T47D. Nature of the data set: Induction of apoptosis in human T47D cells assessed as increase in early apoptotic cells at IC50 concentration incubated for 48 hrs by AnnexinV-FITC/PI staining based flow cytometry (reference value: 0.64%). It counts as functional. A general note: A flow cytometer gives signals particle by particle.
Data set [5] is described as follows: Cytotoxicity against human MCF-10A cells assessed as reduction in cell viability at 10 uM incubated for 24 hrs by MTT assay. In kind it is toxicity, cell-based.
The target of data set [6] is Phosphatidylinositol 4,5-bisphosphate 3-kinase catalytic subunit beta isoform (Homo sapiens, UniProt P42338). Put plainly: Inhibition of PI3K beta (unknown origin) using PIP2 as substrate preincubated for 10 mins followed by substrate addition and measured after 1 hrs by colorimetric analysis.
Sequence of Phosphatidylinositol 4,5-bisphosphate 3-kinase catalytic subunit beta isoform (P42338 whole entry, canonical isoform): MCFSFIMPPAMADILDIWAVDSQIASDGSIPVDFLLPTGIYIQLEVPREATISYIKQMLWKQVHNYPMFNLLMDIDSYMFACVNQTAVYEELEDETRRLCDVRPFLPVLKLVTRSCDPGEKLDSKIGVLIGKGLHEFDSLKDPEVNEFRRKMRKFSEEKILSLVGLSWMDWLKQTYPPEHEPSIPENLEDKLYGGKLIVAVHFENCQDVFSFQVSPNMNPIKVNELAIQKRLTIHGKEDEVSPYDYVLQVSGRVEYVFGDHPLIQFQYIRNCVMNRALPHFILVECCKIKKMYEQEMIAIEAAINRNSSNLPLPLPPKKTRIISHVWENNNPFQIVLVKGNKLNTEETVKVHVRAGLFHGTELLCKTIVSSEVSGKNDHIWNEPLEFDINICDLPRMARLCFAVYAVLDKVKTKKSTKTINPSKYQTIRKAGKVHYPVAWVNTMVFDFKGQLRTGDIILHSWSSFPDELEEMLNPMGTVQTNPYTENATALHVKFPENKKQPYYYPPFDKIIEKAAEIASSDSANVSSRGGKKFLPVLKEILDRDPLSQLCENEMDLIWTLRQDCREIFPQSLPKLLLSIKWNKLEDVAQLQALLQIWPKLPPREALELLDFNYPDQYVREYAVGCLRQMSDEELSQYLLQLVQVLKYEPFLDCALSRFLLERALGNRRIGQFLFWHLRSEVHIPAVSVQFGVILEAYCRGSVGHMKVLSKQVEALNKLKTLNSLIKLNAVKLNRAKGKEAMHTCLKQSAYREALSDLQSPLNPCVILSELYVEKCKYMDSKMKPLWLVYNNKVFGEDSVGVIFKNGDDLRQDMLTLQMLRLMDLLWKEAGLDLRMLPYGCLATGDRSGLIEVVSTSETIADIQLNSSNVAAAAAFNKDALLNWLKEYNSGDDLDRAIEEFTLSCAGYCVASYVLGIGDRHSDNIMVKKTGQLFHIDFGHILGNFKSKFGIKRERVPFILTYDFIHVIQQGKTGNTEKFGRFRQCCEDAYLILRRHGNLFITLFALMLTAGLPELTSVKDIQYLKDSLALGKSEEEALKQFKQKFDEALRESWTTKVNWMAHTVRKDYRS
The subject of data set [7] is T47D. Put plainly: Induction of apoptosis in human T47D cells assessed as inhibition in Bcl2 expression at IC50 concentration incubated for 48 hrs by Western blotting analysis. In kind it is functional, cell-based. Background: In western blotting, separated proteins are transferred to a membrane and probed.
Data set [8] has as its system T47D. Put plainly: Induction of apoptosis in human T47D cells assessed as fold increase in ratio of apoptotic cells incubated for 48 hrs by AnnexinV-FITC/PI staining based flow cytometry. In kind it is functional.
Data set [9] concerns the target Phosphatidylinositol 4,5-bisphosphate 3-kinase catalytic subunit gamma isoform (Homo sapiens, UniProt P48736). Put plainly: Inhibition of PI3K gamma (unknown origin) using PIP2 as substrate preincubated for 10 mins followed by substrate addition and measured after 1 hrs by colorimetric analysis.
The nature of data set [10]: Downregulation of Bcl-2 expression in human T47D cells assessed as fold change at IC50 concentration incubated for 48 hrs by Western blotting analysis. In kind it is functional.
The subject of data set [11] is T47D. Put plainly: Induction of cell cycle arrest in human T47D cells assessed as decrease in accumulation of cells at S phase at IC50 concentration incubated for 48 hrs by […]PI staining based flow cytometry analysis (reference value: 29.88%). Also noted: scale not given: the % may be the effect or the level left. In kind it is functional.
For data set [12], the system named is T47D. Put plainly: Induction of apoptosis in human T47D cells assessed as increase in Bax/Bcl-2 ratio at IC50 concentration incubated for 48 hrs by Western blotting analysis. In kind it is functional, cell-based.
The target in data set [13] is T1, Phosphatidylinositol 4,5-bisphosphate 3-kinase catalytic subunit delta isoform (Homo sapiens, UniProt O00329).
T1 sequence (O00329 whole entry): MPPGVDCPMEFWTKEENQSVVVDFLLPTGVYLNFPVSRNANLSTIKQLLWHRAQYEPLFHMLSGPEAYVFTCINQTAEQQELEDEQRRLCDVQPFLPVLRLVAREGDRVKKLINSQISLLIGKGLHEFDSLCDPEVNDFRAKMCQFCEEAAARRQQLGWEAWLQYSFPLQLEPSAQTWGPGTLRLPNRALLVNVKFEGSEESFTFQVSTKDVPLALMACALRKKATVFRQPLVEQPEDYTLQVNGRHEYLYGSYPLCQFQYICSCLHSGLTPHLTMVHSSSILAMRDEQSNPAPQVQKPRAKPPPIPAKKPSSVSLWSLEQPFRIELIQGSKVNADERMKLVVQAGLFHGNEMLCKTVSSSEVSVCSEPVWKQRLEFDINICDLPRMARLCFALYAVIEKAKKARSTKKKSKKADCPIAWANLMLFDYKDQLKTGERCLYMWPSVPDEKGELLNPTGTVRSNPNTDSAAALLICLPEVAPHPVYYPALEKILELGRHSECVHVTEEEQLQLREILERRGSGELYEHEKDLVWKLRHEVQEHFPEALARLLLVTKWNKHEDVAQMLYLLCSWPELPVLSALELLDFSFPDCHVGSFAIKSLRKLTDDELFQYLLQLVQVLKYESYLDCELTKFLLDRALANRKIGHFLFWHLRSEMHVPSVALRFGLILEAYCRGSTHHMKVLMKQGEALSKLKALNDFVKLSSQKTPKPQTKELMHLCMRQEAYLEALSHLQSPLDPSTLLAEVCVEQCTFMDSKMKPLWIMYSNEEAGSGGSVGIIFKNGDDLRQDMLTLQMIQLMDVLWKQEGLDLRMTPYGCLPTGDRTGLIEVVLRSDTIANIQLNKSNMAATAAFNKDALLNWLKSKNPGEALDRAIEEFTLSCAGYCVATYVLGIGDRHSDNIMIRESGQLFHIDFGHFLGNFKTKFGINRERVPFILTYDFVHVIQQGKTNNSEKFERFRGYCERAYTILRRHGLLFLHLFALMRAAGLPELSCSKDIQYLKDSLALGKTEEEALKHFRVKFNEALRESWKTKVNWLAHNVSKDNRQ
Put plainly: Inhibition of PI3K delta (unknown origin) using PIP2 as substrate preincubated for 10 mins followed by substrate addition and measured after 1 hrs by colorimetric analysis.

The subject of data set [14] is T47D. Put plainly: Induction of apoptosis in human T47D cells assessed as increase in Bax expression at IC50 concentration incubated for 48 hrs by Western blotting analysis. In kind it is functional, cell-based.
Data set [15] concerns T47D. Nature of the data set: Induction of cell cycle arrest in human T47D cells assessed as decrease in accumulation of cells at G0-G1 phase at IC50 concentration incubated for 48 hrs by […]PI staining based flow cytometry analysis (reference value: 52.84%). It counts as functional. On the set-up: scale not given: the % may be the effect or the level left.
For data set [16], the system named is T47D. Put plainly: Induction of apoptosis in human T47D cells assessed as decrease in viable cells at IC50 concentration incubated for 48 hrs by AnnexinV-FITC/PI staining based flow cytometry relative to control. In kind it is functional, cell-based.
Data set [17] is described as follows: Selectivity index, ratio of IC50 for human MCF-10A cells to IC50 for human T47D cells. In kind it is toxicity. The settings on record: MCF-10A cells versus T47D cells, read-out: Ratio IC50.
The subject of data set [18] is T47D. Put plainly: Induction of apoptosis in human T47D cells assessed as increase in p53 expression at IC50 concentration incubated for 48 hrs by Western blotting analysis. It counts as functional, cell-based.
Data set [19] relates to T47D. Nature of the data set: Induction of apoptosis in human T47D cells assessed as increase in necrotic cells at IC50 concentration incubated for 48 hrs by AnnexinV-FITC/PI staining based flow cytometry (reference value: 1.42%). It counts as functional.
Data set [20] has as its system T47D. Put plainly: Induction of cell cycle arrest in human T47D cells assessed as increase in accumulation of cells at G2-M phase at IC50 concentration incubated for 48 hrs by […]PI staining based flow cytometry analysis (reference value: 17.28%). In kind it is functional.
Data set [21] relates to T47D. Put plainly: Induction of apoptosis in human T47D cells assessed as increase in late apoptotic cells at IC50 concentration incubated for 48 hrs by AnnexinV-FITC/PI staining based flow cytometry (reference value: 0.13%). In kind it is functional.
A short description of data set [22]: Upregulation of Bax expression in human T47D cells assessed as fold change at IC50 concentration incubated for 48 hrs by Western blotting analysis. In kind it is functional.
For data set [23], the target named is Phosphatidylinositol 4,5-bisphosphate 3-kinase catalytic subunit alpha isoform (Homo sapiens, UniProt P42336). Put plainly: Inhibition of PI3K alpha (unknown origin) using PIP2 as substrate preincubated for 10 mins followed by substrate addition and measured after 1 hrs by colorimetric analysis.
Sequence of Phosphatidylinositol 4,5-bisphosphate 3-kinase catalytic subunit alpha isoform (P42336 whole entry, canonical isoform): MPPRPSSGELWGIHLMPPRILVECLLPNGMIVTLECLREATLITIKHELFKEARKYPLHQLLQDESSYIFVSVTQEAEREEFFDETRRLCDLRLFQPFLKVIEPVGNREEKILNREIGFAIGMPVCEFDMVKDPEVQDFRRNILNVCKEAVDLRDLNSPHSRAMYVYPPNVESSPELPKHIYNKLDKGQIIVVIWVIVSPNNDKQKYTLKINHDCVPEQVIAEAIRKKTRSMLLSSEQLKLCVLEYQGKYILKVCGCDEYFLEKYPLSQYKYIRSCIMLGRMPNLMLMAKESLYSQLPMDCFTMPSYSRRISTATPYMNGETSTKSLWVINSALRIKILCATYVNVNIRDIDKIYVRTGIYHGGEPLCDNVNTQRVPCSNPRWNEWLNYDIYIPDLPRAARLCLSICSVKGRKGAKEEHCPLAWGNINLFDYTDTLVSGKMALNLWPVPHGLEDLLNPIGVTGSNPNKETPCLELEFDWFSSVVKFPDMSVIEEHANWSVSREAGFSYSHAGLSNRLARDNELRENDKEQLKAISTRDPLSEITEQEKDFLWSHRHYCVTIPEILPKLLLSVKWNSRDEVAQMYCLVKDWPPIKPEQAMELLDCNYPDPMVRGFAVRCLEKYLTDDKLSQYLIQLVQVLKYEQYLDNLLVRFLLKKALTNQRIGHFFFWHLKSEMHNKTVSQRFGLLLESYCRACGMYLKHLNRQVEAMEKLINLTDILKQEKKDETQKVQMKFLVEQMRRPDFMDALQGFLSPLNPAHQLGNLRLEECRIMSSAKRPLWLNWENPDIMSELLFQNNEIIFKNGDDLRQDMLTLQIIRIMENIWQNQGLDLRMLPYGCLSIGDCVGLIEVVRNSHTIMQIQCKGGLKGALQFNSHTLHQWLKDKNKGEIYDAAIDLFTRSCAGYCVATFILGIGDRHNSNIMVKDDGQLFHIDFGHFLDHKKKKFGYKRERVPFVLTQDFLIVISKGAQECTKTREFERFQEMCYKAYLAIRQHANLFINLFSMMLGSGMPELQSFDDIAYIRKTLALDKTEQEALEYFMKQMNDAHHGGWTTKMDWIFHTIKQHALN
The subject of data set [24] is NCI-H23. Nature of the data set: Antiproliferative activity against human NCI-H23 cells assessed as reduction in cell growth inhibition at 10 uM incubated for 24 hrs by MTT assay relative to control. In kind it is functional. The note with it: read-out: GI.

Sequence of Phosphatidylinositol 4,5-bisphosphate 3-kinase catalytic subunit gamma isoform (P48736 whole entry, canonical isoform): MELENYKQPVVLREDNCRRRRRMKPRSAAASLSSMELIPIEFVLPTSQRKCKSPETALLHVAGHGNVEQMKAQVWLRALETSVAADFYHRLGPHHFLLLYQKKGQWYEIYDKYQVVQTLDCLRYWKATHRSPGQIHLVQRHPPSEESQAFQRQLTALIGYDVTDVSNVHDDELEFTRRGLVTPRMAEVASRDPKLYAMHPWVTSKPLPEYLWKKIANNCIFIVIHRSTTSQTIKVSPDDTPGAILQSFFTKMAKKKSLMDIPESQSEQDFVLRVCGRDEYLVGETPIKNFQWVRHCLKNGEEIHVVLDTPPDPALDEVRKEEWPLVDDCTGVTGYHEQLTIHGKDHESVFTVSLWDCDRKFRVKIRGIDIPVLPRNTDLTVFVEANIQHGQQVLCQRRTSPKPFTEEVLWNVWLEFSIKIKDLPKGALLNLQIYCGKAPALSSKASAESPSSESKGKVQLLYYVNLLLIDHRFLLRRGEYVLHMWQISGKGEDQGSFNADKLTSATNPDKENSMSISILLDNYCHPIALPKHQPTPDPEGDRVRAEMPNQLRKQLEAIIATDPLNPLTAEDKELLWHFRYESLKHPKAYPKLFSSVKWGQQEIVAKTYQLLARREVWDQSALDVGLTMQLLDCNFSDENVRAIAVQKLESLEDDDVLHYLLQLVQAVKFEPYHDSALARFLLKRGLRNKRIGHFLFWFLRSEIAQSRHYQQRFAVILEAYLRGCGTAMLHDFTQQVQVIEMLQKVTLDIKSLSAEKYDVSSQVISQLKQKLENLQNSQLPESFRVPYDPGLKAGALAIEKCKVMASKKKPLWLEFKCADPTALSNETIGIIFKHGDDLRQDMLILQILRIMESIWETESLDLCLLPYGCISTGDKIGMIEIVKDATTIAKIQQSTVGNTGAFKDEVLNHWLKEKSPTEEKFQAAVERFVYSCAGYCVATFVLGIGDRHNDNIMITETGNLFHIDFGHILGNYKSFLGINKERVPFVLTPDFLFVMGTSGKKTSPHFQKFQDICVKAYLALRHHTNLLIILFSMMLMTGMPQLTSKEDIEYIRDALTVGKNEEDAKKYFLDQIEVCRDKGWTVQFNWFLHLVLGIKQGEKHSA

Turning to `O=C(C1=CNC(=S)NC1c1ccc(F)cc1)c1ccccc1` (stereo not given), the inhibition of growth at 10 µM in data set [1] amounted to 63%.
For `COc1ccc(-c2ccc3c(=O)[nH]c(=S)[nH]c3n2)cc1`, in data set [2], the inhibition of growth at 10 µM was determined as 81%. In addition, the IC50 (as a rule, the concentration that gives 50% inhibition) in data set [3] worked out at 52.7 µg/mL (≈ 185 µM).
Regarding `CS(=O)(=O)N1CCN(Cc2cc3nc(-c4cccc5[nH]ncc45)nc(N4CCOCC4)c3s2)CC1` [PICTILISIB], the IC50 in data set [3] was found to be 2.56 µg/mL (≈ 4.98 µM).
Take `O=c1[nH]c(=S)[nH]c2nc(-c3ccc(Br)cc3)ccc12`: the inhibition of growth at 10 µM in [2] is 81%. Besides, in data set [3], the IC50 was 9.62 µg/mL (≈ 28.8 µM).
For the compound `O=c1[nH]c(=S)[nH]c2nc(-c3ccccc3)ccc12`, the inhibition of growth at 10 µM in [2] worked out at 50%. For the same compound, the IC50 in [3] was 16.1 µg/mL (≈ 63 µM).
`O=c1[nH]c(=S)[nH]c2nc(-c3ccc(F)cc3)ccc12`: the inhibition of growth at 10 µM in data set [2] turned out to be 81%. Moreover, in data set [3], the IC50 amounted to 6.09 µg/mL (≈ 22.3 µM).
Regarding `O=c1[nH]c(=S)[nH]c2nc(-c3ccc(Cl)cc3)ccc12`, the Activity was 18.83% in data set [4]; 26.87% in [11]; 45.11% in [15]; 6.88% in data set [19]; 28.02% in [20]; 11.51% in data set [21]. In addition, the IC50 at 24 h in data set [5] stood at 422 µg/mL (≈ 1460 µM). Also, the IC50 in [6] was 7.69 µM; in [9], 2.12 µM; in [13] it was 40.9 µM; in data set [23], 0.632 µM; in data set [3], 1.46 µg/mL (≈ 5.04 µM). The inhibition of growth at 10 µM in data set [2] was 81%. Besides, the result in data set [7], in data set [12], in data set [14], in [16] and in [18] was Active. In addition, the entries for the “fold change (FC)” value in data set [8], in [10] and in data set [22] were roughly 37, 0.69 and 2.38, respectively. Besides, the selectivity ratio in data set [17] came out at 289.
Take `Cc1ccc(C(=O)C2=CNC(=S)NC2c2ccc(O)cc2)cc1` (stereo not given): in [1], the inhibition of growth at 10 µM came out at 184%.
As to `Cc1ccc(C(=O)C2=CNC(=O)NC2c2ccc(O)cc2)cc1` (stereo not given), in data set [24], the inhibition of growth at 10 µM amounted to 114%.
For the compound `O=C(C1=CNC(=S)NC1c1ccc(F)cc1)c1ccc(Cl)cc1` (stereo not given), the inhibition of growth at 10 µM in data set [1] turned out to be 63%.
With `Cc1ccc(-c2ccc3c(=O)[nH]c(=S)[nH]c3n2)cc1`, in [2], the inhibition of growth at 10 µM is 81%. Moreover, the IC50 in [3] stood at 18.4 µg/mL (≈ 68.4 µM).
With `O=c1[nH]c(=S)[nH]c2nc(-c3ccc([N+](=O)[O-])cc3)ccc12`, in data set [2], the inhibition of growth at 10 µM worked out at 81%. Moreover, in data set [3], the IC50 stood at 22.1 µg/mL (≈ 73.7 µM).
`O=C(C1=CNC(=S)NC1c1ccc(F)cc1)c1ccc(F)cc1` (stereo not given): the inhibition of growth at 10 µM in data set [1] was determined as 63%.
